Measured values as given in patent publication US8507533B2, “Glucagon receptor modulators” (Pfizer Inc., priority 2011, dated 2013).

These compounds were tested against human glucagon receptor (Homo sapiens (Human), UniProt P47871) (assay: Glucagon cAMP Assay (Cisbio cAMP detection)). Conditions: CHOK1 cells stably transfected with the human glucagon receptor; block of glucagon induced cAMP production; Kb by modified Cheng-Prusoff equation.
Assay type: cell-based
Description: The Cisbio cAMP detection assay is used to determine the ability of punitive glucagon antagonist to block glucagon induced cAMP production. Potential glucagon antagonists are re-suspended and diluted in 100% DMSO. Prior to use in the Glucagon cAMP assay 100×DMSO compound stocks are diluted 20× with DMEM-F12 media (Invitrogen) containing either 0.1% or 4% BSA. […] 2 μls of 5% DMSO or known glucagon antagonist are added to each plate to define the assay window. CHOK1 cells stably transfected with the human glucagon receptor are removed from culture flasks with cell dissociation buffer. Cell pellets are re-suspended, at a concentration of 8.3e^5 cells/ml in DMEM-F12 with or without 4% BSA and 200 uM IBMX. 6 μls of cell suspensions are added to the assay plates. Plates are incubated for 20 min at room temperature prior to the addition of a 100 μM challenge dose of glucagon. On a separate plate glucagon dose response curves are run to determine the EC50 of glucagon. After a 30 min room temperature incubation the reaction is terminated by the addition of lysis buffer containing the cAMP detection reagents. Plates are incubated for an additional 60 min at room temperature prior to being read on the Perkin Elmer fluorescent plate reader. Raw is converted to nM of cAMP produced based on a cAMP standard curve. Converted data is then analyzed using the Pfizer data analysis program. IC50 values are determined from the generated sigmoidal dose response curves. Kb values are calculated using a modified Cheng-Prusoff equation. N is the number of times the compound was assayed.

human glucagon receptor, sequence (P47871 26-477): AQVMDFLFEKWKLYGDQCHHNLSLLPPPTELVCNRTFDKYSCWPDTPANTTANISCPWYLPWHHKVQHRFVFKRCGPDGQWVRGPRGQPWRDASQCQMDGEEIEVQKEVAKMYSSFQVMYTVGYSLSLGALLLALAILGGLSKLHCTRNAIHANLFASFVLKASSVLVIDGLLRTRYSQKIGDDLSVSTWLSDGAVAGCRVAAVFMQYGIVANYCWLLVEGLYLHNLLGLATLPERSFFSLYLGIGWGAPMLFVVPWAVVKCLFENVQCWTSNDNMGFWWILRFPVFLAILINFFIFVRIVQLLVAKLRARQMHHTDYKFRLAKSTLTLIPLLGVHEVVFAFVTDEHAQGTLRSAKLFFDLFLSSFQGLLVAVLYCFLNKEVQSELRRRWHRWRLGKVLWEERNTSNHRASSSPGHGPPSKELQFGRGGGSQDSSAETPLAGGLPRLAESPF

Row | SMILES | Kb [nM]
1 | CCCC(Nc1ccc(-n2cnc(C(F)(F)F)c2)c(C)c1)c1ccc(C(=O)NCCC(=O)O)cc1 (racemic) [Example 1, (+/−)-3-(4-(1-(3-methyl-4-(4-(trifluoromethyl)-1H-imidazol-1-yl)phenylamino)butyl)benzamido)propanoic acid] | 1500
2 | CC(C)CC(Oc1ccc(C(=O)NCCC(=O)O)cc1)c1ccc(-n2cnc(C(F)(F)F)c2)cc1 (racemic) [Example 2, (+/−)-3-(4-(3-methyl-1-(4-(4-(trifluoromethyl)-1H-imidazol-1-yl)phenyl)butoxy)benzamido)propanoic acid] | 5280
3 | CCCC(Oc1ccc(-n2cc(C(F)(F)F)cn2)cc1)c1ccc(C(=O)NCCC(=O)O)cn1 (racemic) [Example 3, (+/−)-3-(6-(1-(4-(4-(trifluoromethyl)-1H-pyrazol-1-yl)phenoxy)butyl)nicotinamido)propanoic acid] | 1820
4 | CC(C)CC(Cc1ccc(-n2cc(C(F)(F)F)cn2)cc1)c1ccc(C(=O)NCCC(=O)O)cc1 (racemic) [Example 4, (+/−)-3-(4-(4-methyl-1-(4-(4-(trifluoromethyl)-1H-pyrazol-1-yl)phenyl)pentan-2-yl)benzamido)propanoic acid] | 1270
5 | O=C(O)CCNC(=O)c1ccc(C(Nc2ccc(-n3cnc(C(F)(F)F)c3)nc2)C2CCCC2)cc1 (racemic) [Example 8, (+/−)-3-(4-(cyclopentyl(6-(4-(trifluoromethyl)-1H-imidazol-1-yl)pyridine-3-ylamino)methyl)benzamido)propanoic acid] | 155
6 | CCCC(Nc1ccc(-n2cnc(C(F)(F)F)c2)nc1)c1ccc(C(=O)NCCC(=O)O)cc1 (racemic) [Example 9, (+/−)-3-(4-(1-(6-(4-(trifluoromethyl)-1H-imidazol-1-yl)pyridine-3-ylamino)butyl)benzamido)propanoic acid] | 572
7 | CCCC(Oc1ccc(-n2cc(SC)cn2)cc1)c1ccc(C(=O)NCCC(=O)O)cc1 (racemic) [Example 20, (+/−)-3-(4-(1-(4-(4-(methylthio)-1H-pyrazol-1-yl)phenoxy)butyl)benzamido)propanoic acid] | 800
8 | CCCC(Oc1ccc(-n2ccc(C(C)(C)C)n2)cc1)c1ccc(C(=O)NCCC(=O)O)cc1 (racemic) [Example 21, (+/−)-3-(4-(1-(4-(3-tert-butyl-1-1H-pyrazol-1-yl)phenoxy)butyl)benzamido)propanoic acid] | 824
9 | CCCC(Oc1ccc(-n2cc(CC)c(C)n2)cc1)c1ccc(C(=O)NCCC(=O)O)cc1 (racemic) [Example 24, (+/−)-3-(4-(1-(4-(4-ethyl-3-methyl-1H-pyrazol-1-yl)phenoxy)butyl)benzamido)propanoic acid] | 1030
10 | CCCC(Oc1ccc(-n2nc(CC)cc2CC)cc1)c1ccc(C(=O)NCCC(=O)O)cc1 (racemic) [Example 25, (+/−)-3-(4-(1-(4-(3,5-diethyl-1H-pyrazol-1-yl)phenoxy)butyl)benzamido)propanoic acid] | 1120
11 | CCCC(Oc1ccc(-n2ccc(C(C)C)n2)cc1)c1ccc(C(=O)NCCC(=O)O)cc1 (racemic) [Example 27, (+/−)-3-(4-(1-(4-(3-isopropyl-1H-pyrazol-1-yl)phenoxy)butyl)benzamido)propanoic acid] | 1080
12 | CCCC(Oc1ccc(-n2ccc(C)n2)cc1)c1ccc(C(=O)NCCC(=O)O)cc1 (racemic) [Example 29, (+/−)-3-(4-(1-(4-(3-methyl-1H-pyrazol-1-yl)phenoxy)butyl)benzamido)propanoic acid] | 1360
13 | CCCC(Oc1ccc(-n2nccn2)cc1)c1ccc(C(=O)NCCC(=O)O)cc1 (racemic) [Example 30, (+/−)-3-(4-(1-(4-(2H-1,2,3-triazol-2-yl)phenoxy)butyl)benzamido)propanoic acid] | 1410
14 | CCCC(Oc1ccc(-n2nc(C)cc2OCC)cc1)c1ccc(C(=O)NCCC(=O)O)cc1 (racemic) [Example 32, (+/−)-3-(4-(1-(4-(5-ethoxy-3-methyl-1H-pyrazol-1-yl)phenoxy)butyl)benzamido)propanoic acid] | 1590
15 | CCCC(Oc1ccc(-n2nc(C)cc2OC)cc1)c1ccc(C(=O)NCCC(=O)O)cc1 (racemic) [Example 33, (+/−)-3-(4-(1-(4-(5-methoxy-3-methyl-1H-pyrazol-1-yl)phenoxy)butyl)benzamido)propanoic acid] | 1560
16 | CCCCc1cn(-c2ccc(OC(CCC)c3ccc(C(=O)NCCC(=O)O)cc3)cc2)cn1 (racemic) [Example 34, (+/−)-3-(4-(1-(4-(4-butyl-1H-imidazol-1-yl)phenoxy)butyl)benzamido)propanoic acid] | 1710
17 | CCCC(Oc1ccc(-n2c(C)c(C)c(C)c2C#N)cc1)c1ccc(C(=O)NCCC(=O)O)cc1 (racemic) [Example 35, (+/−)-3-(4-(1-(4-(2-cyano-3,4,5-trimethyl-1H-pyrrol-1-yl)phenoxy)butyl)benzamido)propanoic acid] | 1790

Row | SMILES | Kb [nM]
18 | CCCC(Oc1ccc(-n2cc(C)c(C#N)c2C)cc1)c1ccc(C(=O)NCCC(=O)O)cc1 (racemic) [Example 36, (+/−)-3-(4-(1-(4-(3-cyano-2,4-dimethyl-1H-pyrrol-1-yl)phenoxy)butyl)benzamido)propanoic acid] | 1820
19 | CCCC(Oc1ccc(-n2ccc(C)c2C#N)cc1)c1ccc(C(=O)NCCC(=O)O)cc1 (racemic) [Example 37, (+/−)-3-(4-(1-(4-(2-cyano-3-methyl-1H-pyrrol-1-yl)phenoxy)butyl)benzamido)propanoic acid] | 1760
20 | CCCc1ccn(-c2ccc(OC(CCC)c3ccc(C(=O)NCCC(=O)O)cn3)cc2)n1 (racemic) [Example 38, (+/−)-3-(6-(1-(4-(3-propyl-1H-pyrazol-1-yl)phenoxy)butyl)nicotinamido)propanoic acid] | 2130
21 | CCCC(Oc1ccc(-n2cc(C)c(C)n2)cc1)c1ccc(C(=O)NCCC(=O)O)cc1 (racemic) [Example 39, (+/−)-3-(4-(1-(4-(3,4-dimethyl-1H-pyrazol-1-yl)phenoxy)butyl)benzamido)propanoic acid] | 2460
22 | CCCC(Oc1ccc(-n2ccn3nccc23)cc1)c1ccc(C(=O)NCCC(=O)O)cc1 (racemic) [Example 41, (+/−)-3-(4-(1-(4-(1H-imidazo[1,2-b]pyrazol-1-yl)phenoxy)butyl)benzamido)propanoic acid] | 2840
23 | CCCC(Oc1ccc(-n2ccc(CC)n2)cc1)c1ccc(C(=O)NCCC(=O)O)cc1 (racemic) [Example 42, (+/−)-3-(4-(1-(4-(3-ethyl-1H-pyrazol-1-yl)phenoxy)butyl)benzamido)propanoic acid] | 2810
24 | CCCC(Oc1ccc(-n2cnc(Cl)c2C)cc1)c1ccc(C(=O)NCCC(=O)O)cc1 (racemic) [Example 43, (+/−)-3-(4-(1-(4-(4-chloro-5-methyl-1H-imidazol-1-yl)phenoxy)butyl)benzamido)propanoic acid] | 2910
25 | CCCC(Oc1ccc(-n2cnc(CC)c2CC)cc1)c1ccc(C(=O)NCCC(=O)O)cc1 (racemic) [Example 44, (+/−)-3-(4-(1-(4-(4,5-diethyl-1H-imidazol-1-yl)phenoxy)butyl)benzamido)propanoic acid] | 3110
26 | CCCC(Oc1ccc(-n2nc(C)cc2C)cc1)c1ccc(C(=O)NCCC(=O)O)cc1 (racemic) [Example 45, (+/−)-3-(4-(1-(4-(3,5-dimethyl-1H-pyrazol-1-yl)phenoxy)butyl)benzamido)propanoic acid] | 3350
27 | CCCC(Oc1ccc(-n2cnc(C)n2)cc1)c1ccc(C(=O)NCCC(=O)O)cc1 (racemic) [Example 46, (+/−)-3-(4-(1-(4-(3-methyl-1H-1,2,4-triazol-1-yl)phenoxy)butyl)benzamido)propanoic acid] | 6890
28 | CCCC(Oc1ccc(-n2cncn2)cc1)c1ccc(C(=O)NCCC(=O)O)cc1 (racemic) [Example 47, (+/−)-3-(4-(1-(4-(1H-1,2,4-triazol-1-yl)phenoxy)butyl)benzamido)propanoic acid] | 7810
29 | CCCCc1nccn1-c1ccc(OC(CCC)c2ccc(C(=O)NCCC(=O)O)cc2)cc1 (racemic) [Example 48, (+/−)-3-(4-(1-(4-(2-butyl-1H-imidazol-1-yl)phenoxy)butyl)benzamido)propanoic acid] | 8150
30 | CCCC(Oc1ccc(-n2cnc(C)c2C)cc1)c1ccc(C(=O)NCCC(=O)O)cc1 (racemic) [Example 49, (+/−)-3-(4-(1-(4-(4,5-dimethyl-1H-imidazol-1-yl)phenoxy)butyl)benzamido)propanoic acid] | 10300
31 | CCCC(Oc1ccc(-c2cnn(CCC)c2)cc1)c1ccc(C(=O)NCCC(=O)O)cc1 (racemic) [Example 50, (+/−)-3-(4-(1-(4-(1-propyl-1H-pyrazol-4-yl)phenoxy)butyl)benzamido)propanoic acid] | 1560
32 | CCCC(Oc1ccc(-c2cc[nH]n2)cc1)c1ccc(C(=O)NCCC(=O)O)cc1 (racemic) [Example 51, (+/−)-3-(4-(1-(4-(1H-pyrazol-3-yl)phenoxy)butyl)benzamido)propanoic acid] | 1810
33 | CCCC(Oc1ccc(-c2c(C)noc2C)cc1)c1ccc(C(=O)NCCC(=O)O)cc1 (racemic) [Example 52, (+/−)-3-(4-(1-(4-(3,5-dimethylisoxazol-4-yl)phenoxy)butyl)benzamido)propanoic acid] | 2410
